Measurements as given in patent US20230219979A1, “PYRAZOLO[1,5-a]PYRIDINE COMPOUND, PREPARATION METHOD THEREFOR AND USE THEREOF” (SHENZHEN ZHONGGE BIOLOGICAL TECHNOLOGY CO., LTD., priority 2019, published 2023).
Read-outs that look alike come from different tables or passages of the source.

Experiments:
Wild-type RET kinase = Wild-type RET kinase (Homo sapiens, UniProt P07949); experiment: HTRF method for testing the inhibitory activity of compounds against RET; format: biochemical
Ba/F3-KIF5B-RET cell = target: T1, Ba/F3-KIF5B-RET cell (Homo sapiens, UniProt P07949); experiment: CellTiter-Glo luminescence assay, inhibitory activity against Ba/F3-KIF5B-RET cell; format: cell-based; conditions: 72 h, read-out: Ba/F3-KIF5B-RET cell activity
T1 construct: fused on or other part: P33176 (Kinesin-1 heavy chain)
Text: (C) In Vitro Screening Experiment - CellTiter-Glo Luminescence Assay for Testing The inhibitory activity of compounds against Ba/F3-KIF5B-RET cell
• 1. The mammalian cell expression vector containing human KIF5B-RET cDNA was introduced into Ba/F3 cells using the Neon® transfection system method, and the surviving clones screened by puromycin were subjected to cell growth inhibitory function experiments and Western blotting to verify cell lines with stable and high expression of RET. • 2. Cells were cultured in RPMI 1640 medium containing 10% fetal bovine serum, 1% penicillin-streptomycin, and 2 µg/mL puromycin, and then placed in a 37° C., 5% carbon dioxide cell incubator. • 3. The test compound (5 mM stock) was diluted 2.5 folds to […] with 100% dimethyl sulfoxide; and the compound was diluted into 10 concentrations at an equal ratio of 1:3 in a 384-well dilution plate. • 4. 0.2 µL of the serially diluted compound was added to a 384-well cell culture plate (Corning, 3570) using an Echo 550 pipetting system, 2 replicate wells for each concentration, and the final concentration of dimethyl sulfoxide was 0.5% (v/v). The gradient concentrations of the test compound were 5000, 1666.7, 555.5, 185.18, 61.72, 20.57, 6.858, 2.286, 0.764, 0.254 nM. • 5. 40 µL of Ba/F3-KIF5B-RET cell suspension containing 800 cells was added to each well, and incubated for 72 h in a 5% CO2 cell incubator. • 6. 20 µL of Cell Titer-Glo reagent was added to each well of the cell culture plate, and the culture system was then shaken and mixed thoroughly for 2 min to lyse the cells, the cells were then incubated at room temperature for 30 min, and the […] signal values were then read with an Envision 2104 microplate reader. • 7. By fitting the data with XLFit 5.0 based on the parameters formula, the IC50 value was calculated as: • [formula]

[1] = HTRF, read-out: Wild-type RET kinase

T1 sequence (P07949 whole entry, stated change not applied, the tested form may be a part): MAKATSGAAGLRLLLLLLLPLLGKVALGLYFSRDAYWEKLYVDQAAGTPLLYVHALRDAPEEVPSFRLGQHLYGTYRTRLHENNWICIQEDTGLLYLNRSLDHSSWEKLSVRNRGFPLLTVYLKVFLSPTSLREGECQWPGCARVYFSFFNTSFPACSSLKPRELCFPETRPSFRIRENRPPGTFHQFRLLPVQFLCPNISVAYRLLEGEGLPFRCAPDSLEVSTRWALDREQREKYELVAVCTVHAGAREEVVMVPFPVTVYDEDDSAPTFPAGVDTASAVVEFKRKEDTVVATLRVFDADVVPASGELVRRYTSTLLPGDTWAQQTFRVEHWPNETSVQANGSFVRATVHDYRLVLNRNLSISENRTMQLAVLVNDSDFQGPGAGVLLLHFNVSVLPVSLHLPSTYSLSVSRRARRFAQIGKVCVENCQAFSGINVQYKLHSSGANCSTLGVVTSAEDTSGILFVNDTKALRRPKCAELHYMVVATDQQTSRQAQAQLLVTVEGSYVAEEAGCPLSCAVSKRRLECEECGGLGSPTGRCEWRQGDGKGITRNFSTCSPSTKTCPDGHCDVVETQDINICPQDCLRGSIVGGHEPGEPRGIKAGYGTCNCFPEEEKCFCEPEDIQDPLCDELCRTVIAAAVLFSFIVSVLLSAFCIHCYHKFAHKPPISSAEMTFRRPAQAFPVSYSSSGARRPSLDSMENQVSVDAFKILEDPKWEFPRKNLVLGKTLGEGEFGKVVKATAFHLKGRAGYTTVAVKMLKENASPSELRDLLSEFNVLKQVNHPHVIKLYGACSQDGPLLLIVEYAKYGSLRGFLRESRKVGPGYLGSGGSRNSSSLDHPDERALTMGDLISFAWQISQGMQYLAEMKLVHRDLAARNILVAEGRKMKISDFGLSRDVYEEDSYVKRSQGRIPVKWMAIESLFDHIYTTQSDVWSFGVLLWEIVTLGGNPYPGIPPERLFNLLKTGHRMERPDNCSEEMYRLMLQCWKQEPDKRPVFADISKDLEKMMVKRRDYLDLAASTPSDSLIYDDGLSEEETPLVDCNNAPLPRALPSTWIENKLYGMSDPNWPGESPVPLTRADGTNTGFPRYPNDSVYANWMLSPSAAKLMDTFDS
Chain of Wild-type RET kinase (P07949 29-1114): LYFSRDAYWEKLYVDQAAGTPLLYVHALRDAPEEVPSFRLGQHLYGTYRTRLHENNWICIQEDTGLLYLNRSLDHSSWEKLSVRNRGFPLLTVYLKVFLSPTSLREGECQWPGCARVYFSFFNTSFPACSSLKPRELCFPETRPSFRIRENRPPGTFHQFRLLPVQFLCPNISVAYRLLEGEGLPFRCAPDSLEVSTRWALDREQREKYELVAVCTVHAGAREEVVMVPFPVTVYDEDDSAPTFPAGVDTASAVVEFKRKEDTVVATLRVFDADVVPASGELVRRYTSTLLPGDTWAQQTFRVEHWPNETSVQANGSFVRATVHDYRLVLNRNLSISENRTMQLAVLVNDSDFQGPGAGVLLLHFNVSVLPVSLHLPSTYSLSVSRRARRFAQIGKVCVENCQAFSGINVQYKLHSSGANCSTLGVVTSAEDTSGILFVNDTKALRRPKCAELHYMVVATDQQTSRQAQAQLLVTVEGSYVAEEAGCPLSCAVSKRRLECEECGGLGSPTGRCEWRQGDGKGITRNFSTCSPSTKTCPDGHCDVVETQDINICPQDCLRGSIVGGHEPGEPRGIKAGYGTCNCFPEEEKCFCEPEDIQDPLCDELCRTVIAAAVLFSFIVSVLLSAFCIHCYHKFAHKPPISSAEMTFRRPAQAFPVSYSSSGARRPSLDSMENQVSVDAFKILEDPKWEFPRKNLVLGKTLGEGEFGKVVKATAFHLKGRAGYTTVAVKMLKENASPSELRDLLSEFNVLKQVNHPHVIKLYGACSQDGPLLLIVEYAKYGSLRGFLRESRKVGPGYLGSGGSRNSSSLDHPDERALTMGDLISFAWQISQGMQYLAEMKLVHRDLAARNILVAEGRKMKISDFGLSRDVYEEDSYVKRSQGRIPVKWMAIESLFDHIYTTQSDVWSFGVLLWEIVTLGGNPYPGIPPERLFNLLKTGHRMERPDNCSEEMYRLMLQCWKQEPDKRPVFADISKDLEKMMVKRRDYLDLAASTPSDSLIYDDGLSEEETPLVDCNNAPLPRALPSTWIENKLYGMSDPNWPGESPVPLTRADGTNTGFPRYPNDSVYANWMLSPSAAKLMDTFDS

| Structure (SMILES) | IC50 (Wild-type RET kinase; [1]) | GI50 (Ba/F3-KIF5B-RET cell) | IC50 (Wild-type RET kinase) |
| --- | --- | --- | --- |
| CCNC(=O)c1cnn2cc(-c3cnn(C)c3)cc(-c3ccc(N4CCN(c5ccc(OC)nc5)CC4)nc3)c12 [Compound 3, N-ethyl-4-(6-(4-(6-methoxypyridin-3-yl)piperazin-1-yl)pyridin-3-yl)-6-(1-methyl-1H-pyridinoxazol-4-yl)H-pyrazolo[1,5-a]pyridine-3-carboxamide] | > 10 µM | – | – |
| CNC(=O)Nc1cnn2cc(-c3cnn(C)c3)cc(-c3ccc(N4CCN(Cc5ccc(OC)nc5)CC4)nc3)c12 [Compound 9, 1-(4-(6-(4-((6-methoxypyridin-3-yl)methyl)piperazin-1-yl)pyridin-3-yl)-6-(1-methyl-1H -pyrazol-4-yl)pyrazolo[1,5-a]pyridin-3-yl)-3-methylurea] | > 10 µM | – | – |
| COc1ccc(CN2CCN(c3ccc(-c4cc(-c5cnn(C)c5)cn5ncc(NC(=O)c6cncn6C)c45)cn3)CC2)cn1 [Compound 12, N-(4-(6-(4-((6-methoxypyridin-3-yl)methyl)piperazin-1-yl)pyridin-3-yl)-6-(1-methyl-1H-pyrazol-4-yl)pyrazolo[1,5-a]pyridin-3-yl)-1-methyl-1H-imidazole-5-carboxamide] | > 10 µM | – | – |
| COc1ccc(CN2CCN(c3ccc(-c4cc(OCCN5CC6CCC5C6)cn5ncc(C#N)c45)cn3)CC2)cn1 (stereo not shown) [Compound 15, 6-(2-(2-azabicyclo[2.2.1]hept-2-yl)ethoxy)-4-(6-(4-((6-methoxypyridin-3-yl)methyl)piperazin-1-yl)pyridin-3-yl)pyrazolo[1,5-a]pyridine-3-carbonitrile] | 0.0014 µM | 0.225 µM | – |
| COc1ccc(CN2C3CC2CN(c2cnc(-c4cc(OCCN5CC6CCCNC6C5)cn5ncc(C#N)c45)cn2)C3)cn1 (stereo not shown) [Compound 17, 4-(5-(6-((6-methoxypyridin-3-yl)methyl)-3,6-diazabicyclo[3.1.1]hept-3-yl)pyrazin-2-yl)-6-(2-(octahydro-6H-pyrrole[3,4-b]pyridin-6-yl)ethoxy)pyrazolo[1,5-a]pyridine-3-carbonitrile] | 0.00032 µM | 0.0611 µM | – |
| CCNC(=O)Oc1cc(-c2cnc(N3CC4CC(C3)N4Cc3ccc(OC)nc3)cn2)c2c(C#N)cnn2c1 [Compound 42, 3-cyano-4-(5-(6-((6-methoxypyridin-3-yl)methyl)-3,6-diazabicyclo[3.1.1]heptan-3-yl)pyrazin-2-yl)pyrazolo[1,5-a]pyridin-6-ylethylcarbamate] | – | – | 0.0092 µM |
| COc1ccc(CN2C3CC2CN(c2cnc(-c4cc(NCC5CC5)cn5ncc(C#N)c45)cn2)C3)cn1 [Compound 53] | 0.00554 µM | – | – |
| COc1ccc(CN2C3CC2CN(c2ccc(-c4cc(NCC5CCOCC5)cn5ncc(C#N)c45)cn2)C3)cn1 [Compound 54, 4-(6-(6-((6-methoxypyridin-3-yl)methyl)-3,6-diazabicyclo[3.1.1]heptyl-3-yl)pyridin-3-yl)-6-(((-2H-pyran-4-yl)methyl)amino)pyrazolo[1,5-a]pyridine-3-carbonitrile] | 0.00276 µM | – | – |
| COc1ccc(CN2C3CC2CN(c2ccc(-c4cc(NCC5CCOC5)cn5ncc(C#N)c45)cn2)C3)cn1 (stereo not shown) [Compound 65, 4-(6-(6-((6-methoxypyridin-3-yl)methyl)-3,6-diazabicyclo[3.1.1]heptyl-3-yl)pyridin-3-yl)-6-(((tetrahydrofuran-3-yl)methyl)amino)pyrazolo[1,5-a]pyridine-3-carbonitrile] | 0.00605 µM | – | – |
| COc1ccc(CN2C3CC2CN(c2ccc(-c4cc(OCC(C)(C)O)cn5ncc(C#N)c45)cn2)C3)cn1 [LOXO-292, reference compound] | – | 0.00708 µM | – |

The next lines start with results.

| IC50 (Wild-type RET kinase; [1]) | GI50 (Ba/F3-KIF5B-RET cell) | Structure (SMILES) | IC50 (Wild-type RET kinase) |
| --- | --- | --- | --- |
| 6.59 µM | – | COc1ccc(CN2CCN(c3ccc(-c4cc(-c5cnn(C)c5)cn5ncc(NC(C)=O)c45)cn3)CC2)cn1 [Compound 4, N-(4-(6-(4-((6-methoxypyridin-3-yl)methyl)piperazin-1-yl)pyridin-3-yl)-6-(1-methyl-1H-pyrazol-4-yl)pyrazol[1,5-a]pyridin-3-yl)acetamide] | – |
| > 10 µM | – | COc1ccc(CN2CCN(c3ccc(-c4cc(-c5cnn(C)c5)cn5ncc(C(=O)NC(C)C)c45)cn3)CC2)cn1 [Compound 5] | – |
| 0.678 µM | – | CNC(=O)c1cnn2cc(-c3cnn(C)c3)cc(-c3ccc(N4CCN(Cc5ccc(OC)nc5)CC4)nc3)c12 [Compound 6] | – |
| > 10 µM | – | COc1ccc(CN2CCN(c3ccc(-c4cc(-c5cnn(C)c5)cn5ncc(NC(=O)C6CC6)c45)cn3)CC2)cn1 [Compound 10, N-(4-(6-(4-((6-methoxypyridin-3-yl)methyl)piperazin-1-yl)pyridin-3-yl)-6-(1-methyl-1H-pyrazol-4-yl)pyrazolo[1,5-a]pyridin-3-yl)cyclopropanecarboxamide] | – |
| > 10 µM | – | COc1ccc(CN2CCN(c3ccc(-c4cc(-c5cnn(C)c5)cn5ncc(NC(=O)c6ccccc6)c45)cn3)CC2)cn1 [Compound 11, N-(4-(6-(4-((6-methoxypyridin-3-yl)methyl)piperazin-1-yl)pyridin-3-yl)-6-(1-methyl-1H-pyrazol-4-yl)pyrazolo[1,5-a]pyridin-3-yl)benzamide] | – |
| 0.0008 µM | 0.224 µM | COc1ccc(CN2CCN(c3ccc(-c4cc(OCCN5CC6(COC6)C5)cn5ncc(C#N)c45)cn3)CC2)cn1 [Compound 13, 6-(2-(2-oxa-6-azaspiro[3.3]hept-6-yl)ethoxy)-4-(6-(4-((6-methoxypyridin-3-yl)methyl)piperazin-1-yl)pyridin-3-yl)pyrazolo[1,5-a]pyridine-3-carbonitrile] | – |
| 0.0016 µM | 0.26 µM | COc1ccc(CN2CCN(c3ccc(-c4cc(OCCN5CCC6(CCOCC6)CC5)cn5ncc(C#N)c45)cn3)CC2)cn1 [Compound 14, 6-(2-(3-oxa-9-azaspiro[5.5]undec-9-yl)ethoxy)-4-(6-(4-((6-methoxypyridine-3-yl)methyl)piperazin-1-yl)pyridin-3-yl)pyrazolo[1,5-a]pyridine-3-carbonitrile] | – |
| 0.0011 µM | 0.203 µM | COc1ccc(CN2CCN(c3ccc(-c4cc(OCCN5CC6CC6C5)cn5ncc(C#N)c45)cn3)CC2)cn1 (stereo not shown) [Compound 16, 6-(2-(3-azabicyclo[3.1.0]hex-3-yl)ethoxy)-4-(6-(4-((6-methoxypyridin-3-yl)methyl)piperazin-1-yl)pyridin-3-yl)pyrazolo[1,5-a]pyridine-3-carbonitrile] | – |
| 0.0005 µM | 0.123 µM | COc1ccc(CN2C3CC2CN(c2cnc(-c4cc(OCCN5CCC6NCCC6C5)cn5ncc(C#N)c45)cn2)C3)cn1 (stereo not shown) [Compound 18, 4-(5-(6-((6-methoxypyridin-3-yl)methyl)-3,6-diazabicyclo[3.1.1]hept-3-yl)pyrazin-2-yl)-6-(2-(octahydro-5H-pyrrolo[3,2-c]pyridin-5-yl)ethoxy)pyrazolo[1,5-a]pyridine-3-carbonitrile] | – |
| 0.00077 µM | 0.183 µM | COc1ccc(CN2C3CC2CN(c2cnc(-c4cc(OCCN5CC6(CCCNC6)C5)cn5ncc(C#N)c45)cn2)C3)cn1 [Compound 19, 6-(2-(2,6-diazaspiro[3.5]non-2-yl)ethoxy)-4-(5-(6-((6-methoxypyridin-3-yl)methyl)-3,6-diazabicyclo[3.1.1]heptan-3-yl)pyrazin-2-yl)pyrazolo[1,5-a]pyridine-3-carbonitrile] | – |
| 0.00263 µM | 0.0191 µM | COc1ccc(CN2C3CC2CN(c2cnc(-c4cc(OCCN5CCC6(COC6)C5)cn5ncc(C#N)c45)cn2)C3)cn1 [Compound 20, 6-(2-(2-oxa-6-azaspiro[3.4]oct-6-yl)ethoxy)-4-(5-(6-((6-methoxypyridin-3-yl)methyl)-3,6-diazabicyclo[3.1.1]heptan-3-yl)pyrazin-2-yl)pyrazolo[1,5-a]pyridine-3-carbonitrile] | – |
| 0.00072 µM | 0.192 µM | COc1ccc(CN2C3CC2CN(c2cnc(-c4cc(OCCN5CCC6(CCNC6)CC5)cn5ncc(C#N)c45)cn2)C3)cn1 [Compound 21] | – |
| 0.0104 µM | – | COc1ccc(CN2C3CC2CN(c2cnc(-c4cc(N(C)CCN(C)C)cn5ncc(C#N)c45)cn2)C3)cn1 [Compound 58, 6-((2-(dimethylamino)ethyl)(methyl)amino)-4-(5-(6-((6-methoxypyridin-3-yl)methyl)-3,6-diazabicyclo[3.1.1]heptan-3-yl)pyrazin-2-yl)pyrazolo[1,5-a]pyridine-3-carbonitrile] | – |
| 0.0296 µM | – | COc1ccc(CN2C3CC2CN(c2ccc(-c4cc(NCC5CCCCC5)cn5ncc(C#N)c45)cn2)C3)cn1 [Compound 60, 6-((cyclohexylmethyl)amino)-4-(6-(6-((6-methoxypyridin-3-yl)methyl)-3,6-diazabicyclo[3.1.1]heptan-3-yl)pyridin-3-yl)pyrazolo[1,5-a]pyridine-3-carbonitrile] | – |
| 0.00483 µM | – | COc1ccc(CN2C3CC2CN(c2ccc(-c4cc(NCC5CCN(C)CC5)cn5ncc(C#N)c45)cn2)C3)cn1 [Compound 64] | – |
